Test results published in ChEMBL document CHEMBL6182924, “Discovery of a Novel and Potent MET Transcription Inhibitor Targeting Promoter G-Quadruplex for the Treatment of NSCLC” (J Med Chem, 2025).
The source made the active and inactive calls. No cut-off for these calls is given here.

Columns and labels:
NCI-H1975 [1] = experiment: Induction of apoptosis in human NCI-H1975 cells assessed as late apoptotic cells at 2 uM incubated for 24 hrs by Annexin V-FITC/PI staining based flow cytometry analysis (reference value: 2.27 %); assay type: functional
A549 [2] = experiment: Antiproliferative activity against human A549 cells incubated for 3 days by CCK-8 assay; assay type: functional, cell-based; details: A549, 72 h
BaF3 = experiment: Antiproliferative activity against mouse BaF3 cells harboring TPR-MET […] mutant incubated for 24 hrs by CCK-8 assay; assay type: functional, cell-based; details: BaF3, 24 h
[3] = Acute toxicity in Sprague-Dawley rat assessed as liver damage at 500 to 2000 mg/kg, po measured every 2 days by H and E staining based analysis; assay type: organism-based; details: in vivo, 48 h, dose 500-2000 mg/kg, time 2 day
[4] = Acute toxicity in Sprague-Dawley rat at 500 to 2000 mg/kg, po measured every 2 days; assay type: organism-based; details: in vivo, 48 h, dose 500-2000 mg/kg, time 2 day
A549 [5] = experiment: Antitumor activity against human A549 cells xenografted in BALB/c mouse assessed as downregulation of c-MET expression in tumor at 20 mg/kg, po administered once a day and measured for 20 days by Western blot analysis; assay type: functional, organism-based; details: time 20.0 day
NCI-H1975 [6] = experiment: Induction of cell cycle arrest in human NCI-H1975 cells assessed as accumulation of cells at G1 phase at 0.5 uM measured for 24 hrs by PI/Rnase staining based flow cytometry (reference value: 79.2 %); assay type: functional
A549 [7] = experiment: Antitumor activity against human A549 cells xenografted in BALB/c mouse assessed as tumor growth inhibition at 20 mg/kg, po administered once a day and measured up to 24 days; assay type: functional; details: A549, 576 h, time <= 24 day, read-out: TGI
A549 [8] = experiment: Downregulation of c-Met expression in human A549 cells at 1 uM by Western blot analysis; assay type: functional, cell-based; details: time <= 72.0 hrs
[9] = Acute toxicity in Sprague-Dawley rat assessed as kidney damage at 500 to 2000 mg/kg, po measured every 2 days by H and E staining based analysis; assay type: organism-based; details: in vivo, 48 h, dose 500-2000 mg/kg, time 2 day
[10] = Toxicity in BALB/c mouse xenografted with human A549 cells assessed as spleen damage at 20 mg/kg, po administered once a day and measured after 20 days by H and E staining based analysis; assay type: organism-based; details: in vivo, 480 h, time 20 day
A549 [11] = experiment: Antitumor activity against human A549 cells xenografted in BALB/c mouse assessed as tumor growth inhibition at 40 mg/kg, po administered once a day and measured up to 24 days; assay type: functional; details: A549, 576 h, time <= 24 day, read-out: TGI
NCI-H1975 [12] = experiment: Induction of apoptosis in human NCI-H1975 cells assessed as viable cells at 1 uM incubated for 24 hrs by Annexin V-FITC/PI staining based flow cytometry analysis (reference value: 90.1 %); assay type: functional; details: read-out: Activity

## COc1cccc(-c2ccc(-c3nc4c5cccnc5c5ncccc5c4[nH]3)o2)c1
NCI-H1975 [1]
  Activity: 14.2%
A549 [2]
  IC50: 430 nM
BaF3
  IC50: 620 nM
[3]
  Activity: Non-toxic
[4]
  Activity: Non-toxic
A549 [5]
  Activity: Active
NCI-H1975 [6]
  Activity: 80.5%
A549 [7]
  inhibition in vivo at 20 mg/kg: 43%
A549 [8]
  Activity: Time-dependent-effect
[9]
  Activity: Non-toxic
[10]
  Activity: Non-toxic
A549 [11]
  inhibition in vivo at 40 mg/kg: 62.4%
NCI-H1975 [12]
  viability at 1 µM: 83.6%
